The text below walks through data of publication PMC6274539, “Photoactivatable Caged Prodrugs of VEGFR-2 Kinase Inhibitors” (Molecules, 2016).

Structures are written as SMILES. Read-outs that look alike come from different tables or passages of the source.

As a reminder, the GI50 is the concentration giving 50% growth inhibition.

The target of test [1] is NEK2a (Homo sapiens, UniProt P51955). Nature of the test: kinase profiling, radioactive filter binding assay. To be noted: 0.1 µM compound, assay duplicates; read-out: residual activity of NEK2a, mean percentage activity. The format is biochemical. As to the method:
(§1) The used method was a radioactive filter binding assay using ^33P ATP, for details see references. The substances were dissolved in DMSO at tested concentration of 0.1 µM. The mean percentage residual kinase activity and standard deviations of assay duplicates were determined. Analyses were performed by the International Center for Kinase Profiling at the University of Dundee, UK.

The target of test [2] is IKK epsilon (14231) (Homo sapiens, UniProt Q14164). The test can be described thus: kinase profiling, radioactive filter binding assay. The test is classed as biochemical. To be noted: 0.1 µM compound, assay duplicates; read-out: residual activity of IKK epsilon (14231), mean percentage activity. On the procedure: as §1
Test [3] concerns the target PKBb (Homo sapiens, UniProt P31751). Nature of the test: kinase profiling, radioactive filter binding assay. To be noted: 0.1 µM compound, assay duplicates; read-out: residual activity of PKBb, mean percentage activity. The test is classed as biochemical. As to the method:
as §1

Test [4] has as its target MKK1 (Homo sapiens, UniProt Q02750). Nature of the test: kinase profiling, radioactive filter binding assay. The test is classed as biochemical. To be noted: 0.1 µM compound, assay duplicates; read-out: residual activity of MKK1, mean percentage activity. On the procedure: as §1
Test [5] addresses p38s MAPK (Homo sapiens, UniProt O15264). The test can be described thus: kinase profiling, radioactive filter binding assay. The format is biochemical. The settings on record: 0.1 µM compound, assay duplicates; read-out: residual activity of p38s MAPK, mean percentage activity. On the procedure: as §1
The target in test [6] is CAMK1 (Homo sapiens, UniProt Q14012). Nature of the test: kinase profiling, radioactive filter binding assay. The settings on record: 0.1 µM compound, assay duplicates; read-out: residual activity of CAMK1, mean percentage activity. The format is biochemical. As to the method:
as §1

The target of test [7] is ROCK 2 (Homo sapiens, UniProt O75116). Nature of the test: kinase profiling, radioactive filter binding assay. To be noted: 0.1 µM compound, assay duplicates; read-out: residual activity of ROCK 2, mean percentage activity. The format is biochemical. As to the method: as §1
Test [8] deals with SGK1 (Homo sapiens, UniProt O00141). Nature of the test: kinase profiling, radioactive filter binding assay. The test is classed as biochemical. The settings on record: 0.1 µM compound, assay duplicates; read-out: residual activity of SGK1, mean percentage activity. On the procedure:
as §1

For test [9], the target named is BTK (Homo sapiens, UniProt Q06187). The test can be described thus: kinase profiling, radioactive filter binding assay. The format is biochemical. The settings on record: 0.1 µM compound, assay duplicates; read-out: residual activity of BTK, mean percentage activity. As to the method: as §1
In test [10] the target is CK2 (Homo sapiens, UniProt P68400). Nature of the test: kinase profiling, radioactive filter binding assay. The format is biochemical. The settings on record: 0.1 µM compound, assay duplicates; read-out: residual activity of CK2, mean percentage activity. As to the method: as §1
The target in test [11] is CAMKKb (Homo sapiens, UniProt Q96RR4). The test can be described thus: kinase profiling, radioactive filter binding assay. The test is classed as biochemical. The settings on record: 0.1 µM compound, assay duplicates; read-out: residual activity of CAMKKb, mean percentage activity. As to the method:
as §1

The target in test [12] is DYRK2 (Homo sapiens, UniProt Q92630). The test can be described thus: kinase profiling, radioactive filter binding assay. The format is biochemical. To be noted: 0.1 µM compound, assay duplicates; read-out: residual activity of DYRK2, mean percentage activity. On the procedure: as §1
Test [13] deals with P38b MAPK (Homo sapiens, UniProt Q15759). Nature of the test: kinase profiling, radioactive filter binding assay. The test is classed as biochemical. To be noted: 0.1 µM compound, assay duplicates; read-out: residual activity of P38b MAPK, mean percentage activity. As to the method: as §1
The target in test [14] is BRSK2 (Homo sapiens, UniProt Q8IWQ3). Nature of the test: kinase profiling, radioactive filter binding assay. The test is classed as biochemical. To be noted: 0.1 µM compound, assay duplicates; read-out: residual activity of BRSK2, mean percentage activity. On the procedure: as §1
The target in test [15] is IGF1-R (Homo sapiens, UniProt P08069). Nature of the test: kinase profiling, radioactive filter binding assay. The format is biochemical. The settings on record: 0.1 µM compound, assay duplicates; read-out: residual activity of IGF1-R, mean percentage activity. As to the method: as §1
Test [16] concerns the target SRPK1 (Homo sapiens, UniProt Q96SB4). The test can be described thus: kinase profiling, radioactive filter binding assay. The test is classed as biochemical. The settings on record: 0.1 µM compound, assay duplicates; read-out: residual activity of SRPK1, mean percentage activity. As to the method: as §1
In test [17] the target is ERK1 (Homo sapiens, UniProt P27361). The test can be described thus: kinase profiling, radioactive filter binding assay. The format is biochemical. The settings on record: 0.1 µM compound, assay duplicates; read-out: residual activity of ERK1, mean percentage activity. As to the method: as §1
The target in test [18] is NEK6 (Homo sapiens, UniProt Q9HC98). The test can be described thus: kinase profiling, radioactive filter binding assay. The test is classed as biochemical. To be noted: 0.1 µM compound, assay duplicates; read-out: residual activity of NEK6, mean percentage activity. On the procedure: as §1
In test [19] the target is EFK2 (Homo sapiens, UniProt O00418). The test can be described thus: kinase profiling, radioactive filter binding assay. The test is classed as biochemical. To be noted: 0.1 µM compound, assay duplicates; read-out: residual activity of EFK2, mean percentage activity. On the procedure: as §1
The target of test [20] is CDK2-Cyclin A (Homo sapiens, UniProt P24941). Nature of the test: kinase profiling, radioactive filter binding assay. The test is classed as biochemical. The settings on record: 0.1 µM compound, assay duplicates; read-out: residual activity of CDK2-Cyclin A, mean percentage activity. As to the method: as §1
Test [21] concerns PC-3 cells. The test can be described thus: cellular growth (proliferation) assay, resazurin. The test is classed as cell-based. As to the method: Growth assays on VEGFR-2 dependent PC-3 cells were performed.
PC-3 cells were purchased from CLS Cell Lines Service GmbH (Eppelheim, Germany). The cells were grown in DMEM:Hams F12 (1:1) medium with 5% FCS. PC-3 cells were incubated in a 5% CO2 humidified atmosphere at 37 °C.
The cells were grown in cell flasks until approximately 90% confluence and then seeded to give 13000 cells in 100 μL per well into 96-well CulturePlates™ (Perkin Elmer). In addition to the test plates, one plate was prepared for reference measurement at day zero. All plates were incubated for 24 h at 37 °C in a humidified atmosphere with 5% CO2. Compounds 1, 3, 4, and 5 were dissolved in 100% DMSO (v/v) and added to the test plates. The final DMSO concentration in the assay was 0.5% (v/v). Viability of the cells in the day zero control plates were determined on the same day without adding any compounds. For viability measurement the resazurin assay was used. The shift in the fluorescence signal was measured at the LS55 Fluorescence spectrometer (Perkin Elmer). For the photoactivation experiments the test plates were irradiated at 365 nm for 5 min (LED source: 8× Nichia NCSU033B, Sahlmann Photochemical Solutions, 50%, 1.1 kW/m^2). Test plates were incubated for further 48 h and cell viability was defined as described above. Measured raw data was converted into percent of cell growth by using the high control (0.5% DMSO (v/v) without compound) and the day zero control. For dose-response studies, 11 different concentrations of compounds were tested in duplicates. IC50 values were calculated using the 4-parameter logarithmic fit option of GraphPad Prism 5.
(In general: Resazurin is reduced to fluorescent resorufin, in cell work by metabolically active cells.)

Where [22] appears, read: Homo sapiens, PC-3, light or radiation study, 48 h, no UV irradiation, cell growth after 48 h, read-out: GI50 without Irradiation.
The mark [23] stands for this setting: Homo sapiens, PC-3, light or radiation study, irradiated at 365 nm, 5 min, 1.1 kW/m^2, cell growth after 48 h, read-out: GI50 after Irradiation.

Chain of CAMKKb (Q96RR4 whole entry): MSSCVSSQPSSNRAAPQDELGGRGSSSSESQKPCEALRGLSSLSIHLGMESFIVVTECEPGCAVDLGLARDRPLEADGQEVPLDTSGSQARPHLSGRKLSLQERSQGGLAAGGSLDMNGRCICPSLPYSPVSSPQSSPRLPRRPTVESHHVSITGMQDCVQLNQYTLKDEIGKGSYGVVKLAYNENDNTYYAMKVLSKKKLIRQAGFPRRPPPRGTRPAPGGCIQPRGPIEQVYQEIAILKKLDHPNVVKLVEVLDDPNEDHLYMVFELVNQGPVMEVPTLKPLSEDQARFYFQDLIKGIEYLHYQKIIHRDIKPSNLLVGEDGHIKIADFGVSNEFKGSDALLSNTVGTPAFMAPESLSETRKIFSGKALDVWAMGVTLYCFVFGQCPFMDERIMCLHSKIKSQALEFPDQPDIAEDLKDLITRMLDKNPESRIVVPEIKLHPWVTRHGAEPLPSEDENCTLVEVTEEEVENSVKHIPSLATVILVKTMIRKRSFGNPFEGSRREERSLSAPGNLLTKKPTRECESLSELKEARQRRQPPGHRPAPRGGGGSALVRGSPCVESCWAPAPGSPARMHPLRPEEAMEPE
Chain of BRSK2 (Q8IWQ3 whole entry): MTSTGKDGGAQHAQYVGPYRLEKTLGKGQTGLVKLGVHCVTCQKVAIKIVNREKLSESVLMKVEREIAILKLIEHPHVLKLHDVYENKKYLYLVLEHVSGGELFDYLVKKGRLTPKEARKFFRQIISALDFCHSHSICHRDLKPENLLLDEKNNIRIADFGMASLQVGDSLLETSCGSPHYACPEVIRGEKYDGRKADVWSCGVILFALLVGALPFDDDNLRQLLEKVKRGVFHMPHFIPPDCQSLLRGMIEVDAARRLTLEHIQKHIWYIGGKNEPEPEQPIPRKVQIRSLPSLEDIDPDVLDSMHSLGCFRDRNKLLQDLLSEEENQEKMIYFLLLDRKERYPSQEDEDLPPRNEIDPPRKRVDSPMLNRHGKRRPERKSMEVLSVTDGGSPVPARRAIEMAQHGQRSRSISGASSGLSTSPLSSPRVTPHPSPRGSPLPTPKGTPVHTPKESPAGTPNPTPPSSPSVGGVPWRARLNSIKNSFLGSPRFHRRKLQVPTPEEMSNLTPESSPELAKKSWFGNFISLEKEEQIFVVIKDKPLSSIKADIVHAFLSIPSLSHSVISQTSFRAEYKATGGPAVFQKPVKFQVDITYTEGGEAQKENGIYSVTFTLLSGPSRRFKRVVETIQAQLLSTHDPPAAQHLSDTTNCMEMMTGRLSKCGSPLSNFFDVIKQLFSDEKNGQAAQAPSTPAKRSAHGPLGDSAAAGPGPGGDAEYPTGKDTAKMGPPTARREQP
Chain of CK2 (P68400 whole entry): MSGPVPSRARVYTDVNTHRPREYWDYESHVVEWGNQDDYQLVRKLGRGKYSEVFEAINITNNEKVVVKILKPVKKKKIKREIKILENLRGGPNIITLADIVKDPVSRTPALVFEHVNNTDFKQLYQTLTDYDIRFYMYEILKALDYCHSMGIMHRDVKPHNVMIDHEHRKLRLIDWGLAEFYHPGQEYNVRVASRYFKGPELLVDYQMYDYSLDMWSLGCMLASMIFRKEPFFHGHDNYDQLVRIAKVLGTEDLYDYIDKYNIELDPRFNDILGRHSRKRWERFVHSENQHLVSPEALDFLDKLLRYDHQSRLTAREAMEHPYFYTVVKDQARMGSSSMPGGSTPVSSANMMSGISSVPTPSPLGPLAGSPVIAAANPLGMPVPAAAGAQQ
Chain of IGF1-R (P08069 31-1367): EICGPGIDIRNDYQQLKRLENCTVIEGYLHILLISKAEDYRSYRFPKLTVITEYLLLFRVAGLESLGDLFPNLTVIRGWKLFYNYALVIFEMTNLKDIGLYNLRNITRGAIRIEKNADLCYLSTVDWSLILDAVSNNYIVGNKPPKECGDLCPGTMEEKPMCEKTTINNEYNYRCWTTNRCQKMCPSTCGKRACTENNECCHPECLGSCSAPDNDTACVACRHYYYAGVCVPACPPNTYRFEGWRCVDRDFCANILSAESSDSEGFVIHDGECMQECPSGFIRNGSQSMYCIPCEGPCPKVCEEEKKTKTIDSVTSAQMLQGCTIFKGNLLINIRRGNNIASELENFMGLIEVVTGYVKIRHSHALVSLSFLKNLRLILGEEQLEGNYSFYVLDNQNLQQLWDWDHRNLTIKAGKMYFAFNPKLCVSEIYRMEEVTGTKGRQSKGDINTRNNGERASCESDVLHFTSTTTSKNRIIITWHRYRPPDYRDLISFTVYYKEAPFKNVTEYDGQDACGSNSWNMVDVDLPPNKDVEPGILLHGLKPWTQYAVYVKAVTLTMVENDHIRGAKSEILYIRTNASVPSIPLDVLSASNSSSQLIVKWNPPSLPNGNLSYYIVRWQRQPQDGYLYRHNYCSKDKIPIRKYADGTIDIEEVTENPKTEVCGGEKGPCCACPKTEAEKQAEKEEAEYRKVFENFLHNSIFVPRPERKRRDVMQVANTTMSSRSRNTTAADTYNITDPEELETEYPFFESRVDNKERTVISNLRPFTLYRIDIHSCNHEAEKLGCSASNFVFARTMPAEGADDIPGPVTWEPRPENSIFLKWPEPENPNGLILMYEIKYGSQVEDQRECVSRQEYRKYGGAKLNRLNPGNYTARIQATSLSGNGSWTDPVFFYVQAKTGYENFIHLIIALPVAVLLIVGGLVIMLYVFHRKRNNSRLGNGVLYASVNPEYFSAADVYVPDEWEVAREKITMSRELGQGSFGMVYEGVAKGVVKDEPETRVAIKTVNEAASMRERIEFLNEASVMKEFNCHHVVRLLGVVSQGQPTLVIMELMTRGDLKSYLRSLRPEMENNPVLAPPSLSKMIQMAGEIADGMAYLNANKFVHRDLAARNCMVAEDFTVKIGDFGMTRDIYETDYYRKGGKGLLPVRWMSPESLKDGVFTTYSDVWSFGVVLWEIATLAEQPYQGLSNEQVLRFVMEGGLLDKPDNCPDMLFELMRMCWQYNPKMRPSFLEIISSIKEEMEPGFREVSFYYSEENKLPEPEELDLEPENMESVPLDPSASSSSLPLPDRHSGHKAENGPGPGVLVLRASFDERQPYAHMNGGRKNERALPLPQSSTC
Chain of p38s MAPK (O15264 whole entry): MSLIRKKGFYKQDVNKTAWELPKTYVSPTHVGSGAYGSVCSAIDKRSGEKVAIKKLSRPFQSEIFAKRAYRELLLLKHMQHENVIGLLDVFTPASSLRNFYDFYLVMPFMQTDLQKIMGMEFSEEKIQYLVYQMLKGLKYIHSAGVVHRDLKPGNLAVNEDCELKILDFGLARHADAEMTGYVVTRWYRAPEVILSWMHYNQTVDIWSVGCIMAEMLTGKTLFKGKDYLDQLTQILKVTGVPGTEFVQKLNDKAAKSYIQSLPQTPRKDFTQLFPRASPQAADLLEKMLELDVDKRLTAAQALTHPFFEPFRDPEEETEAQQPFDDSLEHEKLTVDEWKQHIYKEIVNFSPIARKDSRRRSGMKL
Chain of IKK epsilon (14231) (Q14164 whole entry): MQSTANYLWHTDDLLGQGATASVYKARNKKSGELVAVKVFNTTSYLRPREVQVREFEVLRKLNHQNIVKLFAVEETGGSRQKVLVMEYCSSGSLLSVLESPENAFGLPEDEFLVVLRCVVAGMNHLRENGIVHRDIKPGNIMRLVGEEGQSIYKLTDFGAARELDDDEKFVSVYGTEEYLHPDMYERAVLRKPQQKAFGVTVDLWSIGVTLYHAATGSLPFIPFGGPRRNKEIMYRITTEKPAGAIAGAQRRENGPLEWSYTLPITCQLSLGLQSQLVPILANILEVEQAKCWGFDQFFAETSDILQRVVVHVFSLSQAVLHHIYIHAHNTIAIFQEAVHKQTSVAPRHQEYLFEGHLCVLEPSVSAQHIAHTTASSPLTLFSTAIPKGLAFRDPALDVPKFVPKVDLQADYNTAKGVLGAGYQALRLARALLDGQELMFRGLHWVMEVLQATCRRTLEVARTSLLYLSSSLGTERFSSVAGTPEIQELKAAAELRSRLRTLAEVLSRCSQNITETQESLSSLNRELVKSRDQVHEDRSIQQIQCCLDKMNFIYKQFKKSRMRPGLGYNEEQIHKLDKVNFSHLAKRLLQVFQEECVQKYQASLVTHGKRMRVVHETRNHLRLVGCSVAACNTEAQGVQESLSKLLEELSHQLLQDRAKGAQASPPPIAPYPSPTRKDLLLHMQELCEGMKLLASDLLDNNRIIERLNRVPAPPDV
Chain of DYRK2 (Q92630 whole entry): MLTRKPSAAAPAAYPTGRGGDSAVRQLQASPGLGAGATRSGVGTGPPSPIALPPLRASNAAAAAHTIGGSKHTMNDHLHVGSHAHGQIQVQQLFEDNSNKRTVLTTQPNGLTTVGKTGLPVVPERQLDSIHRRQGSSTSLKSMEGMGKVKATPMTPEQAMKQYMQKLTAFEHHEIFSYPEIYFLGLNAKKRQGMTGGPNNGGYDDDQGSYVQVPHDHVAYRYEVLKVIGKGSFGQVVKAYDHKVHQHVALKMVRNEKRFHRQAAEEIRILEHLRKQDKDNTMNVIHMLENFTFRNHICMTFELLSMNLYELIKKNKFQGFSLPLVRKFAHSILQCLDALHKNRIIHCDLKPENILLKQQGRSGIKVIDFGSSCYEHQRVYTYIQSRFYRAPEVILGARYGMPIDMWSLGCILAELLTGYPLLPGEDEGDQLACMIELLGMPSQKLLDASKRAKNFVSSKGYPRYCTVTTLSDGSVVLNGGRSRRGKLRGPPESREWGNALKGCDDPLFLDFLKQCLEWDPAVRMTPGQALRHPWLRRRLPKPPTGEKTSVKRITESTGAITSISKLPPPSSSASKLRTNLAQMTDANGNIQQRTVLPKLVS
Chain of NEK6 (Q9HC98 whole entry): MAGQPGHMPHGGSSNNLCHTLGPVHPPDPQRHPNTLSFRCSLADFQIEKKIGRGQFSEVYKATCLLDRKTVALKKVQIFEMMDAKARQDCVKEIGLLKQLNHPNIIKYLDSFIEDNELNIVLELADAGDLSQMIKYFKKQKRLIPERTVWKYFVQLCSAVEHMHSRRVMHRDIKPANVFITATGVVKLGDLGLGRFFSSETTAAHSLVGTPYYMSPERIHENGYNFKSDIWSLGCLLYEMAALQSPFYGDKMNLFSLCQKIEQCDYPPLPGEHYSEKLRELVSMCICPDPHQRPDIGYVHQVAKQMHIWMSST

With `COc1cc(C2=C(c3c[nH]c4ccccc34)C(=O)NC2=O)cc(OC)c1OC` [Compound 1, 3-(1H-Indol-3-yl)-4-(3,4,5-trimethoxyphenyl)-1H-pyrrole-2,5-dione], the remaining activity at 0.1 µM in test [1] stood at 87%; in test [2], 85%; in test [3], 98%; in test [4] it was 54%; in test [5], 108%; in [6] it was 107%. For the same molecule, the remaining activity at 0.1 µM turned out to be 97% in test [7]; 75% in test [8]; 93% in [9]; 94% in test [10]; 81% in test [11]; 57% in test [12]. Also, the remaining activity at 0.1 µM in [13] amounted to 86%; in test [14], 94%; in test [15] it was 90%; in [16], 85%; in test [17], 100%; in test [18], 96%. Besides, the values for the remaining activity at 0.1 µM in test [19] and in [20] were 104% and 59%, respectively. The 50% growth inhibitory concentration (GI50) in test [21] (setting [22]) is 6400 nM; in test [21] (setting [23]), 2900 nM.
For the molecule `COc1cc2c3c(c4c5ccccc5[nH]c4c2c(OC)c1OC)C(=O)NC3=O` [Compound 3, 5,6,7-Trimethoxybenzo[a]pyrrolo[3,4-c]carbazole-1,3(2H,8H)-dione], the remaining activity at 0.1 µM in test [1] stood at 91%; in test [2] it was 94%; in [3], 91%; in test [4], 67%; in test [5], 90%; in [6] it was 94%. Moreover, the remaining activity at 0.1 µM came to 88% in test [7]; 52% in [8]; 90% in [9]; 91% in test [10]; 49% in [11]; 17% in [12]. Further, the remaining activity at 0.1 µM in [13] amounted to 89%; in test [14] it was 66%; in [15], 65%; in test [16], 83%; in [17], 91%; in test [18], 104%. Moreover, the results for the remaining activity at 0.1 µM in test [19] and in test [20] were 109% and 28%, respectively. Also, the GI50 in [21] (setting [22]) is 200 nM; in [21] (setting [23]) it was 380 nM; in test [21] (irradiated at 365 nm, 5 min, 1.1 kW/m^2, cell growth after 48 h, read-out: GI50 after Irradiation), 400 nM.
